The values below come from patent US9745328B2, “Flap modulators” (JANSSEN PHARMACEUTICA NV, priority 2013, dated 2017).

Counter-ions that a name gives are not always drawn.

Broadly, the Ki is the equilibrium dissociation constant of an inhibitor or competing ligand from its target.

Chain of human FLAP (P20292 whole entry): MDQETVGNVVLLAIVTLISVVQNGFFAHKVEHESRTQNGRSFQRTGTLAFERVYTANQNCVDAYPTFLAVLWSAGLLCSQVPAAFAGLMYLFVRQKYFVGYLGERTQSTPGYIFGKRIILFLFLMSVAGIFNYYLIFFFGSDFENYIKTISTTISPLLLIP

The target of the first experiment is human FLAP (Homo sapiens (Human), UniProt P20292). The experiment is described as follows: FLAP binding assay (HTRF format). To be noted: Table 6 (additional runs), human FLAP wild type. Here is the method:
The ability of the compounds of the present invention to treat a FLAP-mediated disease and/or disorder, or associated symptoms or complications thereof, was determined using the following procedures. Binding assay data represent the average value obtained from two different assay plates, with samples run in duplicate on each plate. Human whole blood assay data represent a single replicate on an assay plate using whole blood from at least one healthy donor.
Data are expressed as a HTRF ratio.
With `N#CCCN1CCN(S(=O)(=O)c2ccccc2-c2ccc(-c3cnc(N)cn3)c(F)c2)CC1` [Example 174, 3-(4-{[4′-(5-Aminopyrazin-2-yl)-3′-fluoroblphenyl-2-yl]sulfonyl}piperazin-1-yl)propanenitrile], the affinity corresponds to a Ki of 2.4 nM.

`Nc1cnc(-c2ccc(-c3ccccc3S(=O)(=O)N3CCCCCC3)cc2F)cn1` [Example 53, 5-[2′-(Azepan-1-ylsulfonyl)-3-fluorobiphenyl-4-yl]pyrazin-2-amine] displayed a Ki of 3.3 nM. On the same count and under the same terms, as for `Nc1cnc(-c2ccc(-c3ccccc3S(=O)(=O)N3CCOCC3)cc2F)cn1` [Example 44, 5-[3-Fluoro-2′-(morpholin-4-ylsulfonyl)biphenyl-4-yl]pyrazin-2-amine], the figure is 6.5 nM; as for `O=S(=O)(c1ccccc1-c1ccc(-c2cnc3[nH]ccc3n2)c(F)c1)N1CCCCC1` [Example 374, 2-[3-Fluoro-2′-(piperidin-1-ylsulfonyl)biphenyl-4-yl)-5H-pyrrolo[2,3-b]pyrazine], 1.2 nM. Still for that read-out and setting: as for `COC[C@H](C)NS(=O)(=O)c1ccccc1-c1ccc(-c2cnc(N)cn2)c(F)c1` [Example 175, (S)-4′-(5-aminopyrazin-2-yl)-3′-fluoro-N-(1-methoxypropan-2-yl)-[1,1′-biphenyl]-2-sulfonamide], the figure is 1.4 nM. `O=S1(=O)CCN(S(=O)(=O)c2ccccc2-c2ccc(-c3cnc4c(c3)OCCN4)c(F)c2)CC1` [Example 392] returned a Ki of 0.9 nM. Regarding `Nc1ccc(-c2ccc(-c3ccccc3S(=O)(=O)N3CCC(CCO)CC3)cc2F)cn1` [Example 359], the Ki stood at 4.3 nM. Same read-out and setting: as for `Nc1cnc(-c2ccc(-c3ccccc3NS(=O)(=O)C3CC3)cc2F)cn1` [Example 38, N-(4′-(5-aminopyrazin-2-yl)-3′-fluoro-[1,1′-biphenyl]-2-yl)cyclopropanesulfonamide], the figure is 28.8 nM; as for `Nc1cnc(-c2ccc(-c3ccccc3S(=O)(=O)C3CC3)cc2F)cn1` [Example 197, 5-[2′-(Cyclopropylsulfonyl)-3-fluorobiphenyl-4-yl]pyrazin-2-amine], 7.1 nM. Still for that read-out and setting: with `Nc1cnc(-c2ccc(-c3ccccc3S(=O)(=O)N[C@H](CO)Cc3ccccc3)cc2F)cn1` [Example 116, (3),4-(5-aminopyrazin-2-yl)-3′-fluoro-N-(1-hydroxy-3-phenylpropan-2-yl)-[1,1′-biphenyl]-2-sulfonamide] the figure was 0.7 nM. On the same count and under the same terms, with `Nc1cnc(-c2ccc(-c3ccc(C(F)(F)F)cc3S(=O)(=O)NCCO)cc2F)cn1` [Example 210, 4′-(5-aminopyrazin-2-yl)-3′-fluoro-N-(2-hydroxyethyl)-4-(trifluoromethyl)biphenyl-2-sulfonamide] the figure was 0.4 nM; with `CC(C)(NS(=O)(=O)c1ccccc1-c1ccc(-c2cnc(N)cn2)c(F)c1)C(F)(F)F` [Example 13, 4′-(5-4minopyrazin-2-yl)-3′-fluoro-N-(2,2,2-trifluoro-1,1-dimethylethyl)biphenyl-2-sulfonamide], 1.2 nM; with `CN1CCN([C@H]2CN(S(=O)(=O)c3ccccc3-c3ccc(-c4cnc(N)cn4)c(F)c3)C[C@@H]2O)CC1` (stereo in doubt) [Example 188, (3S,4S)-1-{[4′-(5-Aminopyrazin-2-yl)-3′-fluorobiphenyl-2-yl]sulfonyl}-4-(4-methylpiperazin-1-yl)pyrrolidin-3-ol], 201 nM. The compound `CCNS(=O)(=O)c1ccccc1-c1ccc(-c2cnc(N)nc2)c(F)c1` [Example 295, 4′-(2-Aminopyrimidin-5-yl)-N-ethyl-3′-fluorobiphenyl-2-sulfonamide trifluoroacetic acid salt] registered a Ki of 20 nM. Same read-out and setting: as for `O=S1(=O)CCN(S(=O)(=O)c2ccccc2-c2ccc(-c3cnc4[nH]ccc4n3)c(F)c2)CC1` [Example 382, 2-{2′-[(1,1-Dioxidothiomorpholin-4-yl)sulfonyl]-3-fluorobiphenyl-4-yl}-5H-pyrrolo[2,3-b]pyrazine], the figure is 0.5 nM; as for `O=C1NCC[C@@H]1NS(=O)(=O)c1ccccc1-c1ccc(-c2cnc3[nH]ccc3c2)c(F)c1` [Example 364, 3′-Fluoro-N-[(3S)-2-oxopyrrolidin-3-yl]-4′-(1H-pyrrolo[2,3-b]pyridin-5-yl)biphenyl-2-sulfonamide], 2.5 nM. On the same count and under the same terms, with `CC(C)(CO)NS(=O)(=O)c1ccccc1-c1ccc(-c2cnc(N)cn2)c(F)c1` [Example 100, 4′-(5-Aminopyrazin-2-yl)-3′-fluoro-N-(2-hydroxy-1,1-dimethylethyl)biphenyl-2-sulfonamide] the figure was 0.8 nM. Still for that read-out and setting: with `CCC(C)(C)NS(=O)(=O)c1ccccc1-c1ccc(-c2ccc(N)nc2)c(F)c1` [Example 349, 4′-(6-aminopyridin-3-yl)-3′-fluoro-N-(tert-pentyl)-[1,1′-biphenyl]-2-sulfonamide] the figure was 0.9 nM; with `CCNS(=O)(=O)c1ccccc1-c1ccc(-c2cnc(N)cn2)c(F)c1` [Example 16, 4′-(5-Aminopyrazin-2-yl)-N-ethyl-3′-fluorobiphenyl-2-sulfonamide], 5 nM; with `Nc1cnc(-c2ccc(-c3ccccc3S(=O)(=O)N[C@H]3CCCC[C@@H]3CO)cc2F)cn1` (racemic) [Example 121, racemic (trans)-4′-(5-Aminopyrazin-2-yl)-3′-fluoro-N-[2-(hydroxymethyl)cyclohexyl]biphenyl-2-sulfonamide], 0.5 nM. As for `CC(C)[C@H](CO)NS(=O)(=O)c1ccccc1-c1ccc(-c2cnc(N)cn2)c(F)c1` [Example 109], the Ki was 1.5 nM. As to `Nc1cnc(-c2ccc(-c3ccccc3S(=O)(=O)N3CCCC3)cc2F)cn1` [Example 48, 5-[3-Fluoro-2′-(pyrrolidin-1-ylsulfonyl)biphenyl-4-yl]pyrazin-2-amine], the Ki amounted to 7 nM. Compound `CS(=O)(=O)c1ccccc1-c1ccc(-c2cnc(N)cn2)c(F)c1` [Example 1, 5-(3-Fluoro-2′-(methylsulfonyl)-[1,1′-biphenyl]-4-yl)pyrazin-2-amine] gave a Ki of 352 nM. `Nc1ncc(-c2ccc(-c3ccccc3S(=O)(=O)N[C@@H]3CCCNC3=O)cc2F)cn1` [Example 266, 4′-(2-Aminopyrimidin-5-yl)-3′-fluoro-N-[(3R)-2-oxopiperidin-3-yl]biphenyl-2-sulfonamide trifluoroacetic acid salt] registered a Ki of 133 nM. Same read-out and setting: with `Nc1ncc(-c2ccc(-c3ccccc3S(=O)(=O)Nc3ccccc3)cc2F)cn1` [Example 285, 4′-(2-Aminopyrimidin-5-yl)-3′-fluoro-N-phenylbiphenyl-2-sulfonamide trifluoroacetic acid salt] the figure was 3.3 nM; with `Nc1cnc(-c2ccc(-c3ccccc3S(=O)(=O)N[C@@H]3CCCC[C@@H]3CO)cc2F)cn1` (racemic) [Example 122, racemic (cis)-4′-(5-Aminopyrazin-2-yl)-3′-fluoro-N-[2-(hydroxymethyl)cyclohexyl]biphenyl-2-sulfonamide], 0.7 nM; with `CC(C)C[C@@H](CO)NS(=O)(=O)c1ccccc1-c1ccc(-c2cnc(N)cn2)c(F)c1` [Example 79, 4′-(5-Aminopyrazin-2-yl)-3′-fluoro-N-[(1S)-1-(hydroxymethyl)-3-methylbutyl]biphenyl-2-sulfonamide], 5.3 nM.

Regarding `Nc1ncc(-c2ccc(-c3ccccc3S(=O)(=O)N3CC(O)C3)cc2F)cn1` [Example 265, 1-{[4′-(2-Aminopyrimidin-5-yl)-3′-fluorobiphenyl-2-yl]sulfonyl}azetidin-3-ol trifluoroacetic acid salt], affinity was put at a Ki of 35.5 nM.

In turn, `CN1CCCC[C@@H](NS(=O)(=O)c2ccccc2-c2ccc(-c3cnc(N)cn3)c(F)c2)C1=O` [Example 29, (S)-4′-(5-Aminopyrazin-2-yl)-3′-fluoro-N-[(3S)-1-methyl-2-oxoazepan-3-yl]biphenyl-2-sulfonamide] came in with an inhibitory constant (Ki) of 63.2 nM.

The same experiment, now with this note: human FLAP wild type, Table 6 (additional runs).
Compound `Cc1nc(-c2ccc(-c3ccccc3S(=O)(=O)NC(C)(C)C)cc2F)cnc1N` [Example 445, 4′-(5-Amino-6-methylpyrazin-2-yl)-N-tert-butyl-3′-fluorobiphenyl-2-sulfonamide] showed a Ki of 0.5 nM.

For the compound `Nc1cnc(-c2ccc(-c3ccccc3S(N)(=O)=O)c(F)c2F)cn1` [Example 464, 4′-(5-Aminopyrazin-2-yl)-2′,3′-difluorobiphenyl-2-sulfonamide], the affinity, expressed as Ki, was 121 nM. On the same count and under the same terms, as for `COc1cnc(Oc2ccccc2-c2ccc(-c3cnc(N)nc3)c(F)c2)nc1` [Example 550, 5-{3-Fluoro-2′-[(5-methoxypyrimidin-2-yl)oxy]biphenyl-4-yl}pyrimidin-2-amine], the figure is 1.7 nM; as for `N#Cc1nc(-c2ccc(-c3ccccc3S(=O)(=O)N3CCNC(=O)C3)cc2F)cnc1N` [Example 414, 3-Amino-6-{3-fluoro-2′-[(3-oxopiperazin-1-yl)sulfonyl]biphenyl-4-yl}pyrazine-2-carbontrile], 65.5 nM. `Nc1cnc(-c2ccc(-c3ccccc3NS(=O)(=O)c3ccccc3)cc2F)cn1` [Example 479, N-[4′-(5-Aminopyrazin-2-yl)-3′-fluorobiphenyl-2-yl]benzenesulfonamide] registered a Ki of 7.7 nM. The same measure, in the same setting: as for `C[C@@H]1COCCN1C(=O)c1ccccc1-c1ccc(-c2cnc(N)cn2)c(F)c1` [Example 775, 5-(3-Fluoro-2′-{[(3R)-3-methylmorpholin-4-yl]carbonyl}biphenyyl-4-yl)pyrazin-2-amine], the figure is 30.4 nM. On the same count and under the same terms, with `Nc1cnc(-c2ccc(-c3ccccc3Cl)cc2F)cn1` [Example 469, 5-(2′-Chloro-3-fluorobiphenyl-4-yl)pyrazin-2-amine] the figure was 179 nM. On the same count and under the same terms, as for `COc1nc(-c2ccc(-c3ccccc3S(=O)(=O)NC(C)(C)C)cc2F)cnc1N` [Example 433, 4′-(5-Amino-6-methoxypyrazin-2-yl)-N-tert-butyl-3′-fluorobiphenyl-2-sulfonamide], the figure is 1.1 nM.

Staying with this experiment, now noted: human FLAP wild type, a calculated value of 0.000 indicates Ki less than 1 nM.
In the case of `Nc1cnc(-c2ccc(-c3ccc(C(F)(F)F)cc3S(=O)(=O)NCCO)cc2F)cn1` [Example 210, 4′-(5-aminopyrazin-2-yl)-3′-fluoro-N-(2-hydroxyethyl)-4-(trifluoromethyl)biphenyl-2-sulfonamide], the Ki is < 1 nM.

As to `O=S1(=O)CCN(S(=O)(=O)c2ccccc2-c2ccc(-c3cnc4[nH]ccc4n3)c(F)c2)CC1` [Example 382, 2-{2′-[(1,1-Dioxidothiomorpholin-4-yl)sulfonyl]-3-fluorobiphenyl-4-yl}-5H-pyrrolo[2,3-b]pyrazine], the Ki was < 1 nM. Still for that read-out and setting: as for `Nc1cnc(-c2ccc(-c3ccccc3S(=O)(=O)N[C@H]3CCCC[C@@H]3CO)cc2F)cn1` (racemic) [Example 121, racemic (trans)-4′-(5-Aminopyrazin-2-yl)-3′-fluoro-N-[2-(hydroxymethyl)cyclohexyl]biphenyl-2-sulfonamide], the figure is < 1 nM.
